SMILES strings stand for the structures.

One data set addresses LecB PA14 (Pseudomonas aeruginosa, UniProt A0A0H2ZE85). Type of data set: binding. To be noted: target LecB PA14. The procedure:
LecB (LecB PAO1 according to Hauck et al. and LecB PA14 according to Sommer et al.): A serial dilution of the test compounds was prepared in TBS/Ca, with 20% DMSO as cosolvent. A concentrated solution of LecB PAO1 or PA14 was diluted in TBS/Ca together with the fluorescent reporter ligand (N-(fluorescein-5-yl)-N′-(α-l-fucopyranosyl ethylen)-thiocarbamide) to yield concentrations of 300 nM and 20 nM, respectively. 10 μL of this mix was added to 10 μL serial dilutions of the test compounds in a black 384-well microtiter plates (Greiner Bio-One, Germany, cat. no. 781900) in triplicates. After centrifugation (2680 ref, 1 min, room temperature), the reactions were incubated for 4-8 h at room temperature in a humidity chamber. Fluorescence was measured and analysed as for LecA. Bottom and top plateaus were fixed according to the control compound in each assay (1-fucose) and the data was re-analysed with these values fixed. A minimum of three independent measurements on three plates was performed for each inhibitor.

Data set [1] is classed as in vitro ADME. On the procedure:
Each compound dissolved in DMSO was added to mouse plasma (pH 7.4, 37° C.) or to human plasma (pH 7.4, 37° C.) to yield a final concentration of 1 μM. In addition, procaine and procainamide (dissolved in DMSO) were added to mouse plasma or to human plasma (pH 7.4, 37° C.) to yield a final concentration of 1 μM. Procaine served as positive control as it is unstable in mouse plasma. Procainamide served as negative control as it is stable in mouse plasma. The samples were incubated for 0 min, 15 min, 30 min, 60 min, 90 min, 120 min and 240 min at 37° C. At each time point, 10 μl of the respective sample was extracted with 90 l acetonitrile and 1 μl of caffeine as internal standard for 5 min at 2000 rpm on a MixMate® vortex mixer (Eppendorf). Acetonitrile and caffeine were dispensed using a Mantis Formulatrix®. The samples were centrifuged for 20 min at 2270 ref at 4° C. and the supernatants were transferred to 96-well Greiner V-bottom plates. Samples were analysed using HPLC-MS/MS analysis as described in the respective section. Peak areas of each compound and of the internal standard were analysed using the MultiQuant 3.0 software (AB Sciex). […]
Cell samples as well as plasma stability, plasma protein binding and metabolic stability samples were analysed using an Agilent 1290 Infinity II coupled to an AB Sciex 6500plus mass spec-trometer. […]

Chain of LecB PA14 (A0A0H2ZE85 entry or part of it): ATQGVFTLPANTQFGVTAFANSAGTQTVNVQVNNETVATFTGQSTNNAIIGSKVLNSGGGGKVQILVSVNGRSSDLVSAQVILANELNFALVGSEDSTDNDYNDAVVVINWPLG

As usually defined, the IC50 is the concentration that inhibits the measured activity by half. Lower therefore signals greater potency. Broadly, the Ki is the dissociation constant of the complex between target and ligand, obtained from inhibition or displacement. Regarding `CC(C)CC(NC(=O)CNC(=O)C(C)NC(=O)c1ccc(S(=O)(=O)NCC2OC(C)C(O)C(O)C2O)cc1)C(=O)NC(C)C(=O)NC1CCN(c2cc3c(cc2F)c(=O)c(C(=O)O)cn3C2CC2)C1` (stereo not shown) [Compound 37], on LecB PA14, the 50% inhibitory concentration (IC50) was determined as 750 ± 160 nM. Also, the inhibition constant (Ki) at LecB PA14 (calculated as Ki from IC50, read-out: Ki ± s.d.) is 270 ± 60 nM. In data set [1], the “plasma stability, t1/2 human” value came out at 2.25 h and the “plasma stability, t1/2 mouse” value is 1.23 h.
